Here are results for 18 molecules from patent US8211919B2, “Amide derivatives as rock inhibitors” (Astellas Pharma Inc., priority 2005, dated 2012).

Each structure is given as a SMILES string. Structures can show the parent of a compound that is named as a salt.

One assay concerns the target T1, human ROCK I (Homo sapiens, UniProt Q13464).
T1 construct: purchased Caruna Biosciences (sic)
The experiment in a line: ROCK enzyme inhibition assay. In kind it is biochemical. As to the method:
ROCK enzyme inhibitory activity of the compounds of the present invention has been assayed as follow. A aqueous solution of Rho kinase substrate MYTP was added to 96-well plate. Following incubation for overnight at 4° C., the plate was blocked by using blocking buffer containing BSA. To the plate was added reaction buffer containing each concentration of compound, suitable concentration of human ROCK I (Caruna Biosciences), ATP, β-glycerol phosphate, EGTA, sodium orthovanadate and DTT, and then the plate was incubated for 1 hour. After washing the plate by washing buffer, anti-phosphothreonin antibody was added to the plate, and then the plate was incubated for 1 hour. After washing the plate by washing buffer again, HRP-conjugated anti-phosphorylated protein antibody was added to the plate, and then the plate was incubated for 1 hour. After washing the plate by washing buffer again, calorimetric substrate TMB microwell peroxidase substrate was added to the plate, and then the plate was incubated for appropriate time. After incubation, H2SO4 was added to the plate to stop the reaction, and then absorbance (450 nm) was measured by using spectromether. Based on the absorbance for each compound, the data is fit using Prism software to obtain a IC50 value.

For assay [1], the system named is Male Wistar rats. The assay is described as follows: Effects on hindlimb blood flow (laser Doppler). In kind it is in vivo, rat. The settings on record: 10 mg/kg p.o. From the text:
As one of the study to clarify the usefulness of the compounds of the present invention for peripheral arterial disease, we conducted a study to evaluate the effects of the compounds on hindlimb blood flow in rats.
Male Wistar rats were anesthetized by intraperitoneal pentobarbital injection (Kanto chemical, Japan) after oral administration of compounds. Rats were placed on a heating plate for subsequent hindlimb blood flow analysis. We measured hindlimb blood flow using a laser Doppler blood flow meter (PeriScan System, Stockholm, Sweden). After the laser Doppler images were recorded, the average perfusion values of both limbs were calculated, and evaluated the effects of compounds on hindlimb blood flow. Each experiment was performed in about 4 animals.

In assay [2] the test system is Male SD rats, intra-articular MIA in right knee. The assay is described as follows: Changes in hindlimb weight distribution, monosodium iodoacetate (MIA) osteoarthritis model. In kind it is in vivo. The settings on record: Rattus norvegicus, 504 h; oral administration; three weeks after MIA injection; incapacitance tester. From the text:
As intra-articular injection of monosodium iodoacetate (MIA) induced human osteoarthritis-like histopathological changes in knee joint, this model would be very useful for the study of human osteoarthritis. Recently, it is reported the clinical scores of the joint pain were closely correrated to the grade of histological findings (J Vet Med Sci 65, 1195, 2003) and this model may be useful for estimation of therapeutic effects of pain with osteoarthritis.
Male SD rats were anesthetized with halothane (Takeda, Japan) and given single intra-articular injection of 1 mg of monosodium iodoacetate (MIA; Sigma, St. Louis, USA) through the infrapatellar ligament of the right knee. MIA was dissolved with physiologic saline and administered in a volume of 50 ul using a 27-gauge, 0.5-inch needle. Three weeks after the injection, hindlimb weight distribution was determined using an incapacitance tester (Linton Instrumentation, Norfork, UK). Rats were allowed to acclimate to the testing apparatus and when stationary, readings were taken over a 5 s period. […] Each group in each experiment were performed in about 8 animals.

Assay [3] has as its system Male Wistar rats. The assay is described as follows: Inhibitory effects on phenylephrine-induced elevation of urethral pressure. In kind it is in vivo, rat. Conditions: i.v.; phenylephrine 30 ug/kg i.v. From the text: To evaluate the usefulness of the compounds of the present invention for urinary dysfunction associated with benign prostatic hyperplasia, we investigated the inhibitory effects of the intravenous administration of the compounds on phenylephrine-induced elevation of the urethral pressure in rats.
Male Wistar rats were anesthetized with urethane (SIGMA, USA). After midline abdominal incision, catheter to measure the urethral pressure (3.5 Fr, Millar, USA) was inserted into the urethra from top of the bladder. After confirming the Phenylephrine (30 ug/kg i.v.)-induced elevation of the urethral pressure, compounds were administered intravenously in increasing doses. Every 5 min after administration of compounds, Phenylephrine (30 ug/kg i.v.) was injected, and the inhibitory effects of compounds on phenylephrine-induced elevation of urethral pressure were evaluated. Each experiment was performed in about 4 animals.

For assay [4], the system named is Female SD rats, bradykinin injected into knee joint cavity. The experiment in a line: Pain alleviation effect on bradykinin induced joint pain model. In kind it is in vivo, rat. As to the method: Bradykinin is known to be one of the important pain-related mediators in various pain and especially, sodium hyaluronate which is useful for pain in osteoarthritis is reported to be effective in bradykinin-induced joint pain model. Therefore, we examined effects of compounds in the model.
The making of the joint pain model and evaluation of a level of pain was conducted essentially based on the method described in Folia pharmacol. japon., 92, 17-27 (1988). Female SD rats (6-7 weeks old, Charles River Japan, Inc.) were anesthetized with halothane (Wako). Compound of the above Example were administrated orally to the rat by using oral sonde for rat. 60 min after administration of the compound, saline solution of bradykinin was injected into knee joint cavity of hind limb of rat (3 uM/site/50 ul), and then the response to pain of the rat after administration of bradykinin was observed. Level of pain was scored as five grade point (0-4) as follow: 0: no lameness to lameness for 10 seconds; 1: lameness for 10 to 30 seconds; 2: lift of the limb within 10 seconds or lameness for 31 or more seconds; 3: three-legged gait within 10 seconds followed by lameness; 4: three-legged gait for 10 or more seconds followed by lameness. About 10 rat models were used in each experimental group. It was confirmed that administration of bradykinin leads to response to pain scored as about 3.

T1 sequence (Q13464 whole entry): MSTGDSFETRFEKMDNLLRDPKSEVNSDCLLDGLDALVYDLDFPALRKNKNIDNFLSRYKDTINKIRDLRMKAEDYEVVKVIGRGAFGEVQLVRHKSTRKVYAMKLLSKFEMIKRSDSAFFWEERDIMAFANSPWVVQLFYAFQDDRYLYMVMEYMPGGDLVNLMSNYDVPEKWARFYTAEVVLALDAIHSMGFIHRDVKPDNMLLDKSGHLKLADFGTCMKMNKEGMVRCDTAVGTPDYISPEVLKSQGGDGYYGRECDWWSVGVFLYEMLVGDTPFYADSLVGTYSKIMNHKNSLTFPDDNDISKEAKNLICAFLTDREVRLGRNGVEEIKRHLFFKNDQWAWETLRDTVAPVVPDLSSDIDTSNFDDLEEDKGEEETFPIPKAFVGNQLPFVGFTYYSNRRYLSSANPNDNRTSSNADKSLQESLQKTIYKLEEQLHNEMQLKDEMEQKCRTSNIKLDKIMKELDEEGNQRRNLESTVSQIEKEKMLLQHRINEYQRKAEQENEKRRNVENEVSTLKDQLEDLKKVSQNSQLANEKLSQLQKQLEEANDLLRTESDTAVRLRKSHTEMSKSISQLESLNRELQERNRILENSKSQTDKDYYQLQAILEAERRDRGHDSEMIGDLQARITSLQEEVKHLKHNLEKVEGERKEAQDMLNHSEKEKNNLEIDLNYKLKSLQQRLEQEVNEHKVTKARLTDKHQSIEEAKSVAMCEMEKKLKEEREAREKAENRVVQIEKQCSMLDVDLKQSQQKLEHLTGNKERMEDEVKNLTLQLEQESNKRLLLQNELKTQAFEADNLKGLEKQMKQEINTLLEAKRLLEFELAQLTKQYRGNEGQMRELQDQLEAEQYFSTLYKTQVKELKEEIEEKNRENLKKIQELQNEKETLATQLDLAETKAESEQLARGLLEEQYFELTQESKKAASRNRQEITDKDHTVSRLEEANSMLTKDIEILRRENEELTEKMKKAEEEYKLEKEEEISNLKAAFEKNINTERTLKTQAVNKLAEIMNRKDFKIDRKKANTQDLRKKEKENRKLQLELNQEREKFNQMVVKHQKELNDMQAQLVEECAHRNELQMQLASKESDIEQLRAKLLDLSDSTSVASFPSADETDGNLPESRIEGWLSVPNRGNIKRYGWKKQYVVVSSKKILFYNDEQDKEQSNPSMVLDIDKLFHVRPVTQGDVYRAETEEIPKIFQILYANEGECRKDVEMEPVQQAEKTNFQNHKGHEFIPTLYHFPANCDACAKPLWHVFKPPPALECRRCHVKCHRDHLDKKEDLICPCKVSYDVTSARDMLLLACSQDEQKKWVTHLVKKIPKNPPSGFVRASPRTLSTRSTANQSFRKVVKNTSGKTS

A word on the IC50: it is the concentration that inhibits the measured activity by half. Low values mean greater potency, high ones weaker potency. `C[C@@H](NC(=O)Nc1ccc(-c2ccncc2)cc1)c1ccccc1` [Example 3, 1-[(1R)-1-phenylethyl]-3-[4-(4-pyridinyl)phenyl]urea]: at human ROCK I, the IC50 was 240 nM.

By ED50 is commonly meant the dose that gives a 50% effect, or the effect in half of the subjects. A higher ED50 goes with a need for a large dose. On to `N[C@@H](C(=O)Nc1ccc(-c2ccncc2)cc1)c1ccccc1` [Example 108, (2R)-2-amino-2-phenyl-N-[4-(4-pyridinyl)phenyl]acetamide], for which, in the assay on Male Wistar rats [1], the “% of increase of blood flow” value is greater than 130%. Also, the ED50 in assay [2] was less than 3 mg/kg. Further, on human ROCK I, the IC50 was 14 nM.

As for `N[C@H](Cc1ccccc1)C(=O)Nc1ccc(-c2ccncc2)cc1` [Example 54, (2R)-2-amino-3-phenyl-N-[4-(4-pyridinyl)phenyl]propanamide], in the assay with Male Wistar rats [1], the “% of increase of blood flow” value was greater than 130%. For the same molecule, the ED50 in assay [2] was less than 3 mg/kg. The molecule further came in with an IC50 against human ROCK I of 10 nM.

Consider `O=C(Nc1ccc(-c2ccncc2)cc1)N[C@@H](CO)Cc1ccccc1` [Example 73, 1-[(1R)-1-benzyl-2-hydroxyethyl]-3-[4-(4-pyridinyl)phenyl]urea], for which the IC50 at human ROCK I was determined as 84 nM.

Regarding `O=C(Nc1ccc(-c2ccncc2)cc1)N[C@H](CO)c1cccs1` [Example 67, 1-[(1R)-2-hydroxy-1-(2-thienyl)ethyl]-3-[4-(4-pyridinyl)phenyl]urea], in the assay on Male Wistar rats [1], the “% of increase of blood flow” value is greater than 130%. This molecule also had a median effective dose (ED50) in assay [2] of less than 3 mg/kg. Besides, it took 112 nM to reach half-maximal inhibition against human ROCK I (IC50).

In turn, `N[C@@H](Cc1ccccc1)C(=O)Nc1ccc(-c2ccncc2)cc1` [Example 53, (2S)-2-amino-3-phenyl-N-[4-(4-pyridinyl)phenyl]propanamide dihydrochloride] showed an IC50 at human ROCK I of 18 nM.

Turning to `O=C(Nc1ccc(-c2ccncc2)cc1)N[C@H](CO)c1ccccc1` [Example 4, 1-[(1S)-2-hydroxy-1-phenylethyl]-3-[4-(4-pyridinyl)phenyl]urea], the “% of increase of blood flow” value in the assay with Male Wistar rats [1] is reported as greater than 130%. The molecule also displayed an ED50 in assay [2] of less than 3 mg/kg. This molecule showed an IC50 on human ROCK I of 122 nM.

Regarding `N[C@@H](Cc1ccccc1)C(=O)N1CCc2cc(-c3ccncc3)ccc21` [Example 58, (2S)-1-oxo-3-phenyl-1-[5-(4-pyridinyl)-2,3-dihydro-1H-indol-1-yl]-2-propanamine], the ED50 in assay [2] was less than 3 mg/kg. The IC50 at human ROCK I is 53 nM.

In turn, `O=C(Nc1ccc(-c2ccncc2)cc1)C(c1ccccc1)N1CCOCC1` (centres unmarked) [Example 119, 2-morpholin-4-yl-2-phenyl-N-[4-(4-pyridinyl)phenyl]acetamide] yielded an ED50 in assay [2] of less than 3 mg/kg. In addition, half-maximal inhibition against human ROCK I (IC50) was put at 212 nM.

In the case of `N[C@H](Cc1cccc(F)c1)C(=O)Nc1ccc(-c2ccncc2)cc1` [Example 86, 3-fluoro-N-[4-(4-pyridinyl)phenyl]-D-phenylalaninamide], the “% of increase of blood flow” value with Male Wistar rats [1] was greater than 130%. Further, inhibition against human ROCK I was half-maximal at 5 nM (IC50).

Molecule `O=C(NCc1ccccc1)Nc1ccc(-c2ccncc2)cc1` [Example 1, 1-benzyl-3-[4-(4-pyridinyl)phenyl]urea] gave an IC50 against human ROCK I of 342 nM.

With `CN[C@H](Cc1ccccc1)C(=O)Nc1ccc(-c2ccncc2)cc1` [Example 98, N-alpha-methyl-N-[4-(4-pyridinyl)phenyl]-D-phenylalaninamide], in the assay on Male Wistar rats [1], the “% of increase of blood flow” value is given as greater than 130%. The molecule also yielded an ED50 in assay [2] of less than 3 mg/kg. The molecule further showed an IC50 against human ROCK I of 21 nM.

Molecule `Nc1nccc(-c2ccc(NC(=O)[C@H](N)c3cccs3)cc2)n1` [Example 155, (2S)-2-amino-N-[4-(2-aminopyrimidin-4-yl)phenyl]-2-(2-thienyl)acetamide] came in with an IC50 against human ROCK I of 72 nM.

Consider `N[C@H](C(=O)Nc1ccc(-c2ccncc2)cc1)c1ccccc1` [Example 109, (2S)-2-amino-2-phenyl-N-[4-(4-pyridinyl)phenyl]acetamide], for which the “Inhibition of elevation in urethral pressure ED30” value (shortened to “Inhibition of elevation”) in the assay with Male Wistar rats [3] is recorded as less than 1 mg/kg. Besides, the IC50 on human ROCK I worked out at 12 nM.

Regarding `Nc1nccc(-c2ccc(NC(=O)[C@H](N)c3ccccc3)cc2)n1` [Example 154, (2R)-2-amino-N-[4-(2-aminopyrimidin-4-yl)phenyl]-2-phenylacetamide], the “% of increase of blood flow” value in the assay with Male Wistar rats [1] is recorded as greater than 130%. Further, the “Inhibition of elevation” value in the assay on Male Wistar rats [3] is given as less than 1 mg/kg. The ED50 in assay [2] is less than 3 mg/kg. On human ROCK I, this molecule registered an IC50 of 42 nM.

For the molecule `Cl.O=C(CNc1ccccc1)Nc1ccc(-c2ccncc2)cc1` [Example 26, 2-anilino-N-[4-(4-pyridinyl)phenyl]acetamide hydrochloride], the pain score in assay [4] (32 mg/kg orally, 60 min before bradykinin, grade 0-4, vehicle 2.7) turned out to be 1.4. Further, in assay [4] (oral administration, dose dependence), the bradykinin-induced pain responses entry was “dose dependently improved”. This molecule also gave an IC50 on human ROCK I of 77 nM.

As for `Nc1nccc(-c2ccc3c(c2)CCN3C(=O)[C@@H](N)Cc2ccccc2)n1` [Example 151, 4-{1-[(2S)-2-amino-3-phenylpropanoyl]-2,3-dihydro-1H-indol-5-yl}pyrimidin-2-amine], in the assay on Male Wistar rats [3], the “Inhibition of elevation” value is listed as less than 1 mg/kg. Besides, on human ROCK I, inhibition was half-maximal at 86 nM (IC50).

With `O=C(Nc1ccc(-c2ccncc2)cc1)N[C@H](CO)c1ccccc1C(F)(F)F` [Example 72, 1-{(1S)-2-hydroxy-1-[2-(trifluoromethyl)phenyl]ethyl}-3-[4-(4-pyridinyl)phenyl]urea], at human ROCK I, half-maximal inhibition (IC50) required 25 nM.
